The results in this text go back to US20250101041A1, “POSITIVE ALLOSTERIC MODULATORS OF THE MUSCARINIC ACETYLCHOLINE RECEPTOR M4” (Vanderbilt University, priority 2022, published 2025).

The target in this test is T1, human mAChR M4 (Homo sapiens, UniProt P08173).
T1 construct: expressed in transfected cells; host or cells: CHO-K1 (American Type Culture Collection), stably expressing hM4 and Gqi5
T1 sequence (P08173 1-479): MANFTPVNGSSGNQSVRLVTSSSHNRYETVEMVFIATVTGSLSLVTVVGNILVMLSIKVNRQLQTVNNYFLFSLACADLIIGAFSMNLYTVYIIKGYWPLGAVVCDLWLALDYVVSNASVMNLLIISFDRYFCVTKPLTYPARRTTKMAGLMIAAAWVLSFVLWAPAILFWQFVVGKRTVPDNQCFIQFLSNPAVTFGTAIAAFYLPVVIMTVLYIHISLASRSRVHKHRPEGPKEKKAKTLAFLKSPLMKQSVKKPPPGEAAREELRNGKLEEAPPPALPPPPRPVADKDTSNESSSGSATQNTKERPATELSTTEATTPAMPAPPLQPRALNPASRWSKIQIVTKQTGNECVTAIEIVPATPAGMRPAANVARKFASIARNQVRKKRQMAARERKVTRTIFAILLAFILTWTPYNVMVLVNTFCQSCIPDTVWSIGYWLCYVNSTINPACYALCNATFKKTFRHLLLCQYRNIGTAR
The test can be described thus: mAChR M4 cell-based functional assay: calcium mobilization (Fluo-4, FDSS), potentiation of EC20 acetylcholine response in hM4-Gqi5 CHO-K1 cells. As to conditions: human M4; for Emax at 30 µM: CHO-K1, % ACh maximum at 30 μM; for EC50: potentiation of EC20 acetylcholine response, calcium mobilization. A digest of the protocol:
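Readout is the fluorescence-ratio rise at 1 Hz on FDSS, with PAM activity taken as concentration-dependent enhancement of the EC20 acetylcholine response, fitted four-parameter for EC50/Emax. hM4-Gqi5 CHO-K1 cells carried Fluo-4 AM dye; test compounds (11 points, 1:3) preceded EC20 acetylcholine additions at 144 s and 230 s.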
On the technique in general: Calcium assays in cells follow changes in intracellular calcium, usually with a dye or a luminescent sensor.

As usually defined, the Emax is the maximal effect, on the per cent scale that the assay sets. The EC50 is the concentration that produces a half-maximal response. On to `Cc1cc(=O)n2nc(N3CCc4ncc(NCc5csc(C)n5)cc4C3)c(C)c(C)c2n1` [Compound 2-50, 2,8,9-trimethyl-7-(3-(((2-methylthiazol-4-yl)methyl)amino)-7,8-dihydro-1,6-naphthyridin-6(5H)-yl)-4H-pyrimido[1,2-b]pyridazin-4-one], for which the Emax at 30 µM stood at 53% and the concentration for a half-maximal effect (EC50) came out at 837 nM.
The like results for `Cc1c(N2CCc3ncc(-c4cnn(CCN5CCOCC5)c4)cc3C2)nn2c(=O)cc(C(F)F)nc2c1C` [Compound 1-173, 2-(difluoromethyl)-8,9-dimethyl-7-(3-(1-(2-morpholinoethyl)-1H-pyrazol-4-yl)-7,8-dihydro-1,6-naphthyridin-6(5H)-yl)-4H-pyrimido[1,2-b]pyridazin-4-one] were, in that order, 81% and 338 nM.
In the same order, the values of `Cc1cncc(-c2cnc3c(c2)CN(c2nn4c(=O)ccnc4c(C)c2C)CC3)c1` [Compound 1-147, 8,9-dimethyl-7-(3-(5-methylpyridin-3-yl)-7,8-dihydro-1,6-naphthyridin-6(5H)-yl)-4H-pyrimido[1,2-b]pyridazin-4-one] are 80% and 305 nM.
As to `Cc1cc(OC(F)F)ncc1-c1cnc2c(c1)CN(c1nn3c(=O)ccnc3cc1C)CC2` [Compound 1-317, 7-(3-(6-(difluoromethoxy)-4-methylpyridin-3-yl)-7,8-dihydro-1,6-naphthyridin-6(5H)-yl)-8-methyl-4H-pyrimido[1,2-b]pyridazin-4-one], the Emax at 30 µM was determined as 70% and the EC50 is 716 nM.
The like results for `Cc1ccncc1-c1cnc2c(c1)CN(c1nn3c(=O)ccnc3c(C)c1C)CC2` [Compound 1-95, 8,9-dimethyl-7-(3-(4-methylpyridin-3-yl)-7,8-dihydro-1,6-naphthyridin-6(5H)-yl)-4H-pyrimido[1,2-b]pyridazin-4-one] were, in that order, 99% and 68 nM.
In the same order, the values of `Cc1cc2nccc(=O)n2nc1N1CCc2ncc(Nc3ccc(F)nc3C)cc2C1` [Compound 2-143, 7-(3-((6-fluoro-2-methylpyridin-3-yl)amino)-7,8-dihydro-1,6-naphthyridin-6(5H)-yl)-8-methyl-4H-pyrimido[1,2-b]pyridazin-4-one] are 82% and 469 nM.
In the same order, the values of `COC1CCN(c2cnc3c(c2)CN(c2nn4c(=O)cc(C)nc4c(C)c2C)CC3)CC1` [Compound 2-45, 7-(3-(4-methoxypiperidin-1-yl)-7,8-dihydro-1,6-naphthyridin-6(5H)-yl)-2,8,9-trimethyl-4H-pyrimido[1,2-b]pyridazin-4-one] are 66% and 827 nM.
For `[2H]C1([2H])Cc2ncc(-c3ccnn3C)cc2C([2H])([2H])N1c1nn2c(=O)ccnc2cc1C` [Compound 1-449, 8-methyl-7-(3-(1-methyl-1H-pyrazol-5-yl)-7,8-dihydro-1,6-naphthyridin-6(5H)-yl-5,5,7,7-d4)-4H-pyrimido[1,2-b]pyridazin-4-one], the Emax at 30 µM is 93% and the 50% effective concentration (EC50) stood at 283 nM.
Turning to `Cc1cc(=O)n2nc(N3CCc4ncc(-c5ccccc5O)cc4C3)c(C)cc2n1` [Compound 1-235, 7-(3-(2-hydroxyphenyl)-7,8-dihydro-1,6-naphthyridin-6(5H)-yl)-2,8-dimethyl-4H-pyrimido[1,2-b]pyridazin-4-one], the Emax at 30 µM was 62% and the EC50 turned out to be 568 nM.
Consider `Cc1cc(=O)n2nc(N3CCc4ncc(-c5ccc(F)c(F)c5)cc4C3)c(C)cc2n1` [Compound 1-213, 7-(3-(3,4-difluorophenyl)-7,8-dihydro-1,6-naphthyridin-6(5H)-yl)-2,8-dimethyl-4H-pyrimido[1,2-b]pyridazin-4-one], for which the Emax at 30 µM was found to be 82% and the EC50 came out at 443 nM.
The like results for `Cc1cc(=O)n2nc(N3CCc4ncc(Nc5cccnc5F)cc4C3)c(C)cc2n1` [Compound 2-19, 7-(3-((2-fluoropyridin-3-yl)amino)-7,8-dihydro-1,6-naphthyridin-6(5H)-yl)-2,8-dimethyl-4H-pyrimido[1,2-b]pyridazin-4-one] were, in that order, 79% and 60 nM.
Turning to `COCc1cc(=O)n2nc(N3CCc4ncc(-c5cnccc5OC)cc4C3)c(C)cc2n1` [Compound 1-384, 2-(methoxymethyl)-7-(3-(4-methoxypyridin-3-yl)-7,8-dihydro-1,6-naphthyridin-6(5H)-yl)-8-methyl-4H-pyrimido [1,2-b]pyridazin-4-one], the Emax at 30 µM came out at 83% and the EC50 was found to be 1030 nM.
`Cc1cc2nccc(=O)n2nc1N1CCc2ncc(Nc3ccncc3)cc2C1` [Compound 2-97, 8-methyl-7-(3-(pyridin-4-ylamino)-7,8-dihydro-1,6-naphthyridin-6(5H)-yl)-4H-pyrimido[1,2-b]pyridazin-4-one]: the Emax at 30 µM turned out to be 96% and the EC50 stood at 92 nM.
In the same order, the values of `COc1cc(Nc2cnc3c(c2)CN(c2nn4c(=O)ccnc4cc2C)CC3)ccn1` [Compound 2-141, 7-(3-((2-methoxypyridin-4-yl)amino)-7,8-dihydro-1,6-naphthyridin-6(5H)-yl)-8-methyl-4H-pyrimido[1,2-b]pyridazin-4-one] are 100% and 21 nM.
The like results for `Cc1cc2nc(C(=O)N3CC4(COC4)C3)cc(=O)n2nc1N1CCc2ncc(C(F)(F)F)cc2C1` [Compound 1-44, 8-methyl-2-(2-oxa-6-azaspiro[3.3]heptane-6-carbonyl)-7-(3-(trifluoromethyl)-7,8-dihydro-1,6-naphthyridin-6(5H)-yl)-4H-pyrimido[1,2-b]pyridazin-4-one] were, in that order, 92% and 1110 nM.
In the same order, the values of `COCc1cc(=O)n2nc(N3CCc4ncc(-c5ccc(OC(F)F)nc5)cc4C3)c(C)cc2n1` [Compound 1-374, 7-(3-(6-(difluoromethoxy)pyridin-3-yl)-7,8-dihydro-1,6-naphthyridin-6(5H)-yl)-2-(methoxymethyl)-8-methyl-4H-pyrimido[1,2-b]pyridazin-4-one] are 67% and 227 nM.
On to `Cc1cc(=O)n2nc(N3CCc4ncc(-c5cnc6ccccc6c5)cc4C3)c(C)c(C)c2n1` [Compound 1-120, 2,8,9-trimethyl-7-(3-(quinolin-3-yl)-7,8-dihydro-1,6-naphthyridin-6(5H)-yl)-4H-pyrimido[1,2-b]pyridazin-4-one], for which the Emax at 30 µM is 65% and the EC50 came to 749 nM.
On to `Cc1cc2nccc(=O)n2nc1N1CCc2ncc(N3CCOC(c4cccc(F)c4)C3)cc2C1` (centres unmarked) [Compound 2-61, 7-(3-(2-(3-fluorophenyl)morpholino)-7,8-dihydro-1,6-naphthyridin-6(5H)-yl)-8-methyl-4H-pyrimido[1,2-b]pyridazin-4-one], for which the Emax at 30 µM stood at 84% and the EC50 is 518 nM.
In the same order, the values of `Cc1cc(=O)n2nc(N3CCc4ncc(-c5cnccn5)cc4C3)c(C)cc2n1` [Compound 1-260, 2,8-dimethyl-7-(3-(pyrazin-2-yl)-7,8-dihydro-1,6-naphthyridin-6(5H)-yl)-4H-pyrimido[1,2-b]pyridazin-4-one] are 83% and 97 nM.
